Data set [1] is described as follows: Protein binding in plasma (unknown origin). It is filed as ADME, cell-free. The conditions noted are these: read-out: PPB (converted).
Data set [2] concerns the target T1, Albumin (Homo sapiens, UniProt P02768). The experiment in a line: Protein binding in immobilized human serum albumin by HPLC analysis. In kind it is ADME. The conditions noted are these: read-out: PB (converted).
The target in data set [3] is T1, Albumin. The experiment in a line: Protein binding in human serum albumin after 4.5 hrs by LC-MS based rapid equilibrium dialysis method. The note with it: read-out: PB (converted). In kind it is ADME. In general terms: Equilibrium dialysis compares concentrations on both sides of a semipermeable membrane.
The target in data set [4] is T1, Albumin. In words: Protein binding in immobilized human serum albumin after 15 mins by HPLC analysis. It is filed as ADME. The note with it: read-out: PB (converted).

T1 sequence (P02768 whole entry): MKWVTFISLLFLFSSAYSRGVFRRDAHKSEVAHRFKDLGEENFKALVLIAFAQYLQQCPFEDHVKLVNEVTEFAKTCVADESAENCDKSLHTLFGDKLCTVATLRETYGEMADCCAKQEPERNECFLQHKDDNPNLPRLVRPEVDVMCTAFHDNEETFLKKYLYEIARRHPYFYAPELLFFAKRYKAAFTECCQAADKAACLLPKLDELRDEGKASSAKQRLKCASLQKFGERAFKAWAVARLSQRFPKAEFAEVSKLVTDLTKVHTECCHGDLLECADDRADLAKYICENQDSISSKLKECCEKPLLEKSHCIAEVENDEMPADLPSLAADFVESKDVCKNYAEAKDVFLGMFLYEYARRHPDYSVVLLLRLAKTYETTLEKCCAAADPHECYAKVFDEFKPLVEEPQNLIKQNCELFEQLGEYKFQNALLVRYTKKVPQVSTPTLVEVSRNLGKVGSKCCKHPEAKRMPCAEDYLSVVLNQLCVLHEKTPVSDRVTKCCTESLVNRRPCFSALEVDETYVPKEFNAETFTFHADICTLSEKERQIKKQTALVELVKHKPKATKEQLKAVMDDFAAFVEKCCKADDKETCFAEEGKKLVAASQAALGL

Turning to `CC1=C(CC(=O)O)c2cc(F)ccc2/C1=C\c1ccc([S+](C)[O-])cc1` (stereo not drawn), the fraction unbound in data set [1] is 0.06 to 0.065.
Consider `CCN(CC)CCC[C@H](C)Nc1ccnc2cc(Cl)ccc12`, for which the fraction unbound on Albumin [2] was 0.495.
For the molecule `CCCCC1(C)C(=O)N(c2ccccc2)N(c2ccccc2)C1=O`, the fraction unbound at 4.5 h on Albumin [3] is 0.359. For the same molecule, on Albumin [2], the fraction unbound is 0.15.
For `CCCCc1c(OC)n(-c2ccccc2)n(-c2ccccc2)c1=O` the same measures were 0.071 and 0.071.
For the molecule `CCOC(=O)c1cc(-c2ccc(F)cc2F)ccc1O`, the fraction unbound on Albumin [2] is 0.025.
Regarding `COC1=C(C(=O)Nc2ncc(C)s2)N(C)S(=O)(=O)c2ccccc21`, the fraction unbound at 4.5 h on Albumin [3] was 0.341. The fraction unbound on Albumin [2] was 0.158.
For `CO/N=C(\C(=O)N[C@@H]1C(=O)N2C(C(=O)O)=C(COC(N)=O)CS[C@H]12)c1ccco1` [CEFUROXIME], the fraction unbound in data set [1] was 0.67 to 0.685.
Take `NC(N)=Nc1nc(CSCCC(N)=NS(N)(=O)=O)cs1` [FAMOTIDINE]: the fraction unbound at 4.5 h at Albumin [3] is 0.956. Moreover, the fraction unbound in data set [1] was 0.8; at Albumin [2], 0.749.
As to `CN(C)CCCN1c2ccccc2CCc2ccccc21` [IMIPRAMINE], the results for the fraction unbound (in data set [1]; on Albumin [2]) were 0.074 to 0.099 and 0.151, respectively.
On to `NNC(=O)c1ccncc1` [ISONIAZID], for which the fraction unbound at 0.25 h on Albumin [4] is 0.932. In addition, the fraction unbound in data set [1] is 1; on Albumin [2], 0.891.
As to `CN1C(C(=O)Nc2ccccn2)=C(O)c2sc(Cl)cc2S1(=O)=O` [LORNOXICAM], the fraction unbound at 4.5 h at Albumin [3] was 0.02.
Turning to `Cc1cnc(NC(=O)C2=C(O)c3ccccc3S(=O)(=O)N2C)s1` [MELOXICAM], on Albumin [3], the fraction unbound at 4.5 h was 0.033. Besides, the fraction unbound at Albumin [2] is 0.001.
On to `Cc1ncc([N+](=O)[O-])n1CCO` [METRONIDAZOLE], for which, in data set [1], the fraction unbound was 0.89 to 0.9.
Take `O=C1CN=C(c2ccccc2)c2cc([N+](=O)[O-])ccc2N1` [NITRAZEPAM]: the fraction unbound on Albumin [2] is 0.233.
Consider `CNC(=O)Oc1ccc2c(c1)[C@]1(C)CCN(C)[C@@H]1N2C` [PHYSOSTIGMINE], for which, at Albumin [3], the fraction unbound at 4.5 h was 0.903. The fraction unbound on Albumin [2] was 0.8.
Regarding `CN1C(C(=O)Nc2ccccn2)=C(O)c2ccccc2S1(=O)=O` [PIROXICAM], the fraction unbound in data set [1] is 0.01.
As to `CCN(CC)CCOC(=O)c1ccc(N)cc1` [PROCAINE], at Albumin [4], the fraction unbound at 0.25 h is 0.64. The fraction unbound in data set [1] was 0.94.
Turning to `CC(C)NCC(O)COc1cccc2ccccc12` (stereo not drawn) [PROPRANOLOL], the fraction unbound on Albumin [2] was 0.375.
`CN1C(C(=O)Nc2ccccn2)=C(O)c2sccc2S1(=O)=O` [TENOXICAM]: the fraction unbound at 4.5 h on Albumin [3] is 0.032.
For `COc1cc(Cc2cnc(N)nc2N)cc(OC)c1OC` [TRIMETHOPRIM], on Albumin [3], the fraction unbound at 4.5 h is 0.969. Also, the fraction unbound was 0.585 to 0.625 in data set [1] and 0.627 on Albumin [2].

Source of the values: ChEMBL document CHEMBL4321884, “Human Serum Albumin Binding in a Vial: A Novel UV-pH Titration Method To Assist Drug Design” (J Med Chem, 2020).
